According to PubChem BioAssay AID1963976 (Molecular Pharmacology Branch, DTP, NCI, 2024):
Blank lines part the entries; values can stand above or below the compound they belong to.

System: 435261-313-R-J1-PDC tumor spheroid viability
Test: Anticancer human tumor 435261-313-R-J1-PDC patient-derived colon adenocarcinoma cell line growth inhibition [PI3K]
Conditions: spheroids with HUVEC and MSC; for IC50: curve of first compound; for viability, T/C: stronger effect = lower value
Procedure, shortened: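 Targeted small molecules plus PI3K inhibitors, half-log dose series from Cmax (default top 10 microM), were applied to heterotypic spheroids of cancer cells with HUVEC and MSCs. Viability indicated growth inhibition.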

[1] = second compound 0.00316 µM, first compound 0.0316 µM
[2] = second compound 0.00316 µM, first compound 0.1 µM
[3] = second compound 0.01 µM, first compound 0.0316 µM
[4] = second compound 0.01 µM, first compound 0.1 µM
[5] = second compound 0.0316 µM, first compound 0.0316 µM
[6] = second compound 0.0316 µM, first compound 0.1 µM
[7] = second compound 0.1 µM, first compound 0.0316 µM
[8] = second compound 0.1 µM, first compound 0.1 µM
[9] = second compound 0.316 µM, first compound 0.0316 µM
[10] = second compound 0.316 µM, first compound 0.1 µM
[11] = second compound 1 µM, first compound 0.0316 µM
[12] = second compound 1 µM, first compound 0.1 µM
[13] = second compound 0.00316 µM, first compound 0.316 µM
[14] = second compound 0.00316 µM, first compound 1 µM
[15] = second compound 0.00316 µM, first compound 3.16 µM
[16] = second compound 0.00316 µM, first compound 10 µM
[17] = second compound 0.01 µM, first compound 0.316 µM
[18] = second compound 0.01 µM, first compound 1 µM
[19] = second compound 0.01 µM, first compound 3.16 µM
[20] = second compound 0.01 µM, first compound 10 µM
[21] = second compound 0.0316 µM, first compound 0.316 µM
[22] = second compound 0.0316 µM, first compound 1 µM
[23] = second compound 0.0316 µM, first compound 3.16 µM
[24] = second compound 0.0316 µM, first compound 10 µM
[25] = second compound 0.1 µM, first compound 0.316 µM
[26] = second compound 0.1 µM, first compound 1 µM
[27] = second compound 0.1 µM, first compound 3.16 µM
[28] = second compound 0.1 µM, first compound 10 µM
[29] = second compound 0.316 µM, first compound 0.316 µM
[30] = second compound 0.316 µM, first compound 1 µM
[31] = second compound 0.316 µM, first compound 3.16 µM
[32] = second compound 0.316 µM, first compound 10 µM
[33] = second compound 1 µM, first compound 0.316 µM
[34] = second compound 1 µM, first compound 1 µM
[35] = second compound 1 µM, first compound 3.16 µM
[36] = second compound 1 µM, first compound 10 µM
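Also: spheroids exposed to compounds for 7 days.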

IC50 (second compound 0.00316 µM): 11.8 nM
IC50 (second compound 0.01 µM): 1.34 nM
IC50 (second compound 0.0316 µM): < 0.316 nM
IC50 (second compound 0.1 µM): < 0.316 nM
IC50 (second compound 0.316 µM): < 0.316 nM
IC50 (second compound 1 µM): < 0.316 nM
SMILES: CC(C)n1nc(-c2ccc3oc(N)nc3c2)c2c(N)ncnc21 + COc1c(OCCCN2CCOCC2)ccc2c3n(c(=NC(=O)c4cnc(N)nc4)nc12)CCN3
viability, T/C (second compound 0.00316 µM, first compound 0.000316 µM): 66.9%
viability, T/C (second compound 0.00316 µM, first compound 0.001 µM): 47.5%
viability, T/C (second compound 0.00316 µM, first compound 0.00316 µM): 74.6%
viability, T/C (second compound 0.00316 µM, first compound 0.01 µM): 51.4%
viability, T/C [1]: 27.4%
viability, T/C [2]: 12.1%
viability, T/C (second compound 0.01 µM, first compound 0.000316 µM): 48.1%
viability, T/C (second compound 0.01 µM, first compound 0.001 µM): 56.3%
viability, T/C (second compound 0.01 µM, first compound 0.00316 µM): 46.8%
viability, T/C (second compound 0.01 µM, first compound 0.01 µM): 32.2%
viability, T/C [3]: 21.7%
viability, T/C [4]: 10.8%
viability, T/C (second compound 0.0316 µM, first compound 0.000316 µM): 25.7%
viability, T/C (second compound 0.0316 µM, first compound 0.001 µM): 22.9%
viability, T/C (second compound 0.0316 µM, first compound 0.00316 µM): 24%
viability, T/C (second compound 0.0316 µM, first compound 0.01 µM): 19.4%
viability, T/C [5]: 16.4%
viability, T/C [6]: 9.19%
viability, T/C (second compound 0.1 µM, first compound 0.000316 µM): 16.6%
viability, T/C (second compound 0.1 µM, first compound 0.001 µM): 14.2%
viability, T/C (second compound 0.1 µM, first compound 0.00316 µM): 14%
viability, T/C (second compound 0.1 µM, first compound 0.01 µM): 13.6%
viability, T/C [7]: 10.3%
viability, T/C [8]: 5.04%
viability, T/C (second compound 0.316 µM, first compound 0.000316 µM): 8.4%
viability, T/C (second compound 0.316 µM, first compound 0.001 µM): 7.74%
viability, T/C (second compound 0.316 µM, first compound 0.00316 µM): 6.9%
viability, T/C (second compound 0.316 µM, first compound 0.01 µM): 6.3%
viability, T/C [9]: 4.52%
viability, T/C [10]: 2.1%
viability, T/C (second compound 1 µM, first compound 0.000316 µM): 4.2%
viability, T/C (second compound 1 µM, first compound 0.001 µM): 4.04%
viability, T/C (second compound 1 µM, first compound 0.00316 µM): 3.72%
viability, T/C (second compound 1 µM, first compound 0.01 µM): 3.28%
viability, T/C [11]: 3.57%
viability, T/C [12]: 2.22%

IC50 (second compound 0.00316 µM): 4970 nM
IC50 (second compound 0.01 µM): 3250 nM
IC50 (second compound 0.0316 µM): < 31.6 nM
IC50 (second compound 0.1 µM): < 31.6 nM
IC50 (second compound 0.316 µM): < 31.6 nM
IC50 (second compound 1 µM): < 31.6 nM
SMILES: CC1(C)CCC(CN2CCN(c3ccc(C(=O)NS(=O)(=O)c4ccc(NCC5CCOCC5)c([N+](=O)[O-])c4)c(Oc4cnc5[nH]ccc5c4)c3)CC2)=C(c2ccc(Cl)cc2)C1 + COc1c(OCCCN2CCOCC2)ccc2c3n(c(=NC(=O)c4cnc(N)nc4)nc12)CCN3
viability, T/C [1]: 77.8%
viability, T/C [2]: 65%
viability, T/C [13]: 59.7%
viability, T/C [14]: 66.4%
viability, T/C [15]: 92.9%
viability, T/C [16]: 15.3%
viability, T/C [3]: 45.6%
viability, T/C [4]: 41.2%
viability, T/C [17]: 44%
viability, T/C [18]: 81%
viability, T/C [19]: 49.6%
viability, T/C [20]: 10%
viability, T/C [5]: 25.2%
viability, T/C [6]: 25.9%
viability, T/C [21]: 28.5%
viability, T/C [22]: 22.6%
viability, T/C [23]: 33.9%
viability, T/C [24]: 8.36%
viability, T/C [7]: 16.8%
viability, T/C [8]: 15.3%
viability, T/C [25]: 14.9%
viability, T/C [26]: 13.9%
viability, T/C [27]: 13.5%
viability, T/C [28]: 5.88%
viability, T/C [9]: 8.12%
viability, T/C [10]: 8.36%
viability, T/C [29]: 8.35%
viability, T/C [30]: 7.93%
viability, T/C [31]: 9.73%
viability, T/C [32]: 4.39%
viability, T/C [11]: 4.19%
viability, T/C [12]: 4.08%
viability, T/C [33]: 4.61%
viability, T/C [34]: 5.2%
viability, T/C [35]: 6.19%
viability, T/C [36]: 3.8%

IC50 (second compound 0.00316 µM): > 10000 nM
IC50 (second compound 0.01 µM): > 10000 nM
IC50 (second compound 0.0316 µM): < 31.6 nM
IC50 (second compound 0.1 µM): < 31.6 nM
IC50 (second compound 0.316 µM): < 31.6 nM
IC50 (second compound 1 µM): < 31.6 nM
SMILES: C[C@@H](NC(=O)c1ncnc(N)c1Cl)c1ncc(C(=O)Nc2cc(C(F)(F)F)c(Cl)cn2)s1 + COc1c(OCCCN2CCOCC2)ccc2c3n(c(=NC(=O)c4cnc(N)nc4)nc12)CCN3
viability, T/C [1]: 133%
viability, T/C [2]: 138%
viability, T/C [13]: 70%
viability, T/C [14]: 120%
viability, T/C [15]: 99.2%
viability, T/C [16]: 78.6%
viability, T/C [3]: 66.2%
viability, T/C [4]: 70.4%
viability, T/C [17]: 69.8%
viability, T/C [18]: 103%
viability, T/C [19]: 63.3%
viability, T/C [20]: 53.2%
viability, T/C [5]: 32.7%
viability, T/C [6]: 33.6%
viability, T/C [21]: 47.5%
viability, T/C [22]: 30.1%
viability, T/C [23]: 37.8%
viability, T/C [24]: 17.5%
viability, T/C [7]: 20.4%
viability, T/C [8]: 21.7%
viability, T/C [25]: 22%
viability, T/C [26]: 19.5%
viability, T/C [27]: 18.2%
viability, T/C [28]: 8.2%
viability, T/C [9]: 10.8%
viability, T/C [10]: 13.1%
viability, T/C [29]: 12.2%
viability, T/C [30]: 13.3%
viability, T/C [31]: 10.5%
viability, T/C [32]: 3.91%
viability, T/C [11]: 5.11%
viability, T/C [12]: 6.44%
viability, T/C [33]: 7.13%
viability, T/C [34]: 7.09%
viability, T/C [35]: 5.4%
viability, T/C [36]: 2.3%
